# Laboratory results as given in patent publication US12473296B2, “Perk inhibiting compounds” (HiberCell, Inc., priority 2019, dated 2025).
# Experiments:
# [1] = target: EIF2AK3 (PERK) catalytic domain (amino acids 536-1116) (Homo sapiens (Human), UniProt Q9NZJ5); assay: PERK in vitro activity assay (isolated), TR-FRET kinase assay; settings: isolated PERK enzyme, 1.5 μM ATP, GFP-eIF2a substrate; read-out: Biochemical IC50
# Procedure, shortened: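 Human PERK catalytic domain (aa 536-1116) with 100-200 nM GFP-eIF2a in 50 mM HEPES pH 7.5, 10 mM MgCl2, 1.0 mM EGTA, 0.01% Brij-35; enzyme-started reaction run 45 min at room temperature. Stopped with 10 mM EDTA, 2 nM Tb-anti-phospho-eIF2a added for 90 min; IC50 from TR-FRET ratio by 4-parameter logistic fit.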
# [2] = target: PERK (Homo sapiens (Human), UniProt Q9NZJ5); assay: PERK cellular assay (TR-FRET, HEK293-EGFP-eIF2α cells, tunicamycin-induced ER stress); assay type: cell-based; settings: tunicamycin 2 hours, read-out: Cellular IC50 (μM) (EIF2a)
# Sequence of PERK (Q9NZJ5 30-1116): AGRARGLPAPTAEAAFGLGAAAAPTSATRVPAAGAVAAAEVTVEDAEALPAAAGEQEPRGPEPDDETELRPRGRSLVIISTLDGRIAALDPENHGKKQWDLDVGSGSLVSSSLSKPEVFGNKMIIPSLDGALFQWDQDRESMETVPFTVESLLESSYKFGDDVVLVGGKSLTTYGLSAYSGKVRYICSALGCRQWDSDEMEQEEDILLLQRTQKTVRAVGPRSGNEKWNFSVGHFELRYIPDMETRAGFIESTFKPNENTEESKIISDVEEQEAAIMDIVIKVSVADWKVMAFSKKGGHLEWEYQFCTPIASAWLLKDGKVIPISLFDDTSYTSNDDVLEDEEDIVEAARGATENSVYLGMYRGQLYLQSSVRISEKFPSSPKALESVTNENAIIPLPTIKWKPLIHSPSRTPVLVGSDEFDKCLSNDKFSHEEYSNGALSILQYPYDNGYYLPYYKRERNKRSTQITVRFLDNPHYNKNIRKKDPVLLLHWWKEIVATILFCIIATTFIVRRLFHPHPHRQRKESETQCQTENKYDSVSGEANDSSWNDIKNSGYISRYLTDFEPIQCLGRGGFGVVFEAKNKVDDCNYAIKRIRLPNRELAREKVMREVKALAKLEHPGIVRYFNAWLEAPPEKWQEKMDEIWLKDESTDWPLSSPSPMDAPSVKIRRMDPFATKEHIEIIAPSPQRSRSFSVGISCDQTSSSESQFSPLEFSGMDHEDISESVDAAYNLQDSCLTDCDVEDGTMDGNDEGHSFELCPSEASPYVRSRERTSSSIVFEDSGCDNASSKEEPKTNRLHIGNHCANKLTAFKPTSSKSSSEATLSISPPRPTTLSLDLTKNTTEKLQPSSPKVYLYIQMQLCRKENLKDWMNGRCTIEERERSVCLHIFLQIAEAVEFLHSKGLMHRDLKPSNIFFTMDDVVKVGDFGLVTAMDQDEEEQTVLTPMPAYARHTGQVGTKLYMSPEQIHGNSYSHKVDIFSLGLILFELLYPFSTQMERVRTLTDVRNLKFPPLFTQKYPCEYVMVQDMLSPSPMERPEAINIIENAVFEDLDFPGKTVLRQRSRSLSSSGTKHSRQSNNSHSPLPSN
# Procedure, shortened: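 Cells pre-incubated with inhibitor 30 min at 37 °C, then ER stress induced with […] tunicamycin for 2 h. TR-FRET read on lysates; ratio normalized to DMSO control as percent inhibition over a 10-point, 3-fold dilution series; IC50 from 4-parameter logistic fit.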
# Sequence of EIF2AK3 (PERK) catalytic domain (amino acids 536-1116) (Q9NZJ5 536-1116): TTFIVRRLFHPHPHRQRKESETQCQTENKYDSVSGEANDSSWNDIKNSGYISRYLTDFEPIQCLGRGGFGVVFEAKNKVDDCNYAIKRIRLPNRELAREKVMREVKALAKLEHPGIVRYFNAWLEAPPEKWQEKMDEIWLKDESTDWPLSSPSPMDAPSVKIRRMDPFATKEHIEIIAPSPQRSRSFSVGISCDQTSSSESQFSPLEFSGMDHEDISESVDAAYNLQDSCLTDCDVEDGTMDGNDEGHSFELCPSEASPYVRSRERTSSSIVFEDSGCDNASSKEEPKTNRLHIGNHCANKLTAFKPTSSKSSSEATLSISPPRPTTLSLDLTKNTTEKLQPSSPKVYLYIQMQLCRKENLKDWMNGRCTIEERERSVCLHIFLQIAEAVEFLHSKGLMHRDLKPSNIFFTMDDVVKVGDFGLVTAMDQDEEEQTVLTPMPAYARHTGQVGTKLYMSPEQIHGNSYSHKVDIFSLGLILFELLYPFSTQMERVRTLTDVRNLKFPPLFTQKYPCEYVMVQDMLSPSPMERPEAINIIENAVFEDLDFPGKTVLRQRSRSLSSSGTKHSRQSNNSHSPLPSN
Compound,IC50 [1],IC50 [2]
"CCc1cc(NC(=O)C(O)c2cc(F)cc(F)c2)ccc1-c1cnc(N)c(C(=O)NC2CC2)n1 (stereo not shown) [Example 157, 3-amino-N-cyclopropyl-6-(4-(2-(3,5-difluorophenyl)-2-hydroxyacetamido)-2-ethylphenyl) pyrazine-2-carboxamide]",101 to 250 nM,0.101 to 0.25 µM
"CCc1cc(NC(=O)C(O)c2cc(F)cc(F)c2)ccc1-c1cnc(N)c(C(=O)NC2COC2)n1 (stereo not shown) [Example 158, 3-amino-6-(4-(3-(3,5-difluorophenyl)-2-hydroxyacetamido)-2-ethylphenyl)-N-(oxetan-3-yl)pyrazine-2-carboxamide]",1 to 25 nM,0.001 to 0.025 µM
"CCc1cc(NC(=O)C(O)c2cccc(C)c2)ccc1-c1cnc(N)c(C(=O)NC(C)C)n1 (stereo not shown) [Example 160, 3-amino-6-(2-ethyl-4-(2-hydroxy-2-(m-tolyl)acetamido)phenyl)-N-isopropylpyrazine-2-carboxamide]",1 to 25 nM,0.001 to 0.025 µM
"CCc1cc(NC(=O)C(O)c2cccc(C)c2)ccc1-c1cnc(N)c(C(=O)NC(C)C)n1 (stereo not shown) [Example 161, 3-amino-6-(2-ethyl-4-(2-hydroxy-2-(m-tolyl)acetamido)phenyl)-N-isopropylpyrazine-2-carboxamide]",51 to 100 nM,0.251 to 0.5 µM
"Nc1ncc(-c2ccc(NC(=O)C(O)c3cc(F)cc(F)c3)cc2Cl)nc1C(=O)NCC(F)(F)F (stereo not shown) [Example 164, 3-amino-6-(2-chloro-4-(2-(3,5-difluorophenyl)-2-hydroxyacetamido)phenyl)-N-(2,2,2-trifluoroethyl) pyrazine-2-carboxamide]",1000 to 2000 nM,0.251 to 0.5 µM
"Nc1ncc(-c2ccc(NC(=O)C(O)c3cc(F)cc(F)c3)cc2Cl)nc1C(=O)NCC(F)(F)F (stereo not shown) [Example 165, 3-amino-6-(2-chloro-4-(2-(3,5-difluorophenyl)-2-hydroxyacetamido)phenyl)-N-(2,2,2-trifluoroethyl) pyrazine-2-carboxamide]",51 to 100 nM,0.026 to 0.05 µM
"Nc1ncc(-c2ccc(NC(=O)C(O)c3cc(F)cc(F)c3)cc2Cl)nc1C(=O)NC1COC1 (stereo not shown) [Example 168, 3-amino-6-(2-chloro-4-(2-(3,5-difluorophenyl)-2-hydroxyacetamido)phenyl)-N-(oxetan-3-yl)pyrazine-2-carboxamide]",51 to 100 nM,0.101 to 0.25 µM
"Nc1ncc(-c2ccc(NC(=O)C(O)c3cc(F)cc(F)c3)cc2Cl)nc1C(=O)NC1COC1 (stereo not shown) [Example 169, 3-amino-6-(2-chloro-4-(2-(3,5-difluorophenyl)-2-hydroxyacetamido)phenyl)-N-(oxetan-3-yl)pyrazine-2-carboxamide]",1 to 25 nM,0.001 to 0.025 µM
"Cc1cc(NC(=O)C(O)c2cc(F)cc(F)c2)ccc1-c1ccc(N)nc1 (stereo not shown) [Example 170, N-(4-(6-aminopyridin-3-yl)-3-methylphenyl)-2-(3,5-difluorophenyl)-2-hydroxyacetamide]",51 to 100 nM,2 to 3 µM
"CNc1ccc(-c2ccc(NC(=O)C(O)c3cc(F)cc(F)c3)cc2C)cn1 (stereo not shown) [Example 173, 2-(3,5-difluorophenyl)-2-hydroxy-N-(3-methyl-4-(6-(methylamino)pyridin-3-yl)phenyl)acetamide]",101 to 250 nM,> 5 µM
"CNc1ncc(-c2ccc(NC(=O)C(O)c3cc(F)cc(F)c3)cc2C)cc1C(=O)NC(C)C (stereo not shown) [Example 175, 5-(4-(2-(3,5-difluorophenyl)-2-hydroxyacetamido)-2-methylphenyl)-N-isopropyl-2-(methylamino) nicotinamide]",1000 to 2000 nM,> 5 µM
"Cc1cc(NC(=O)C(O)c2cc(F)cc(F)c2)ccc1-c1cncc(C(=O)NC(C)C)c1 (stereo not shown) [Example 179, 5-(4-(2-(3,5-difluorophenyl)-2-hydroxyacetamido)-2-methylphenyl)-N-isopropylnicotinamide]",101 to 250 nM,0.501 to 1 µM
"Cc1cc(N(O)C(=O)C(O)c2cc(F)cc(F)c2)ccc1-c1cnc(N)c(C(=O)NC(C)C)c1 (stereo not shown) [Example 182, 2-amino-5-(4-(2-(3,5-difluorophenyl)-N,2-dihydroxyacetamido)-2-methylphenyl)-N-isopropylnicotinamide]",251 to 500 nM,2 to 3 µM
"Cc1cc(NC(=O)C(F)(F)c2ccccc2)ccc1-c1cnc(N)c(C(=O)NC(C)C)c1 [Example 183, 2-amino-5-(4-(2,2-difluoro-2-phenylacetamido)-2-methylphenyl)-N-isopropylnicotinamide]",101 to 250 nM,2 to 3 µM
"Cc1cc(NC(=O)Cc2ccccc2)ccc1-c1cnc(N)c(C(=O)NC(C)C)c1 [Example 187, 2-amino-N-isopropyl-5-(2-methyl-4-(2-phenylacetamido)phenyl)nicotinamide]",51 to 100 nM,0.501 to 1 µM
"Cc1cc(NC(=O)CCc2ccccc2)ccc1-c1cnc(N)c(C(=O)NC(C)C)c1 [Example 188, 2-amino-N-isopropyl-5-(2-methyl-4-(3-phenylpropanamido)phenyl) nicotinamide]",251 to 500 nM,2 to 3 µM
"Cc1cc(NC(=O)Cc2cccc(F)c2)ccc1-c1cnc(N)c(C(=O)NC(C)C)c1 [Example 190, 2-amino-5-(4-(2-(3-fluorophenyl)acetamido)-2-methylphenyl)-N-isopropylnicotinamide]",51 to 100 nM,0.501 to 1 µM
"Cc1cc(NC(=O)Cc2ccc(F)cc2)ccc1-c1cnc(N)c(C(=O)NC(C)C)c1 [Example 191, 2-amino-5-(4-(2-(4-fluorophenyl)acetamido)-2-methylphenyl)-N-isopropylnicotinamide]",51 to 100 nM,1 to 2 µM
"COc1ccccc1CC(=O)Nc1ccc(-c2cnc(N)c(C(=O)NC(C)C)c2)c(C)c1 [Example 192, 2-amino-N-isopropyl-5-(4-(2-(2-methoxyphenyl)acetamido)-2-methylphenyl) nicotinamide]",101 to 250 nM,2 to 3 µM

# Other lines, results leading:
IC50 [1],IC50 [2],Compound
26 to 50 nM,0.101 to 0.25 µM,"CCc1cc(NC(=O)C(O)c2cc(F)cc(F)c2)ccc1-c1cnc(N)c(C(=O)NC2COC2)n1 (stereo not shown) [Example 159, 3-amino-6-(4-(2-(3,5-difluorophenyl)-2-hydroxyacetamido)-2-ethylphenyl)-N-(oxetan-3-yl)pyrazine-2-carboxamide]"
251 to 500 nM,> 5 µM,"Cc1cc(NC(=O)C(O)c2cc(F)cc(F)c2)ccc1-c1ccc(N)nc1 (stereo not shown) [Example 171, N-(4-(6-aminopyridin-3-yl)-3-methylphenyl)-2-(3,5-difluorophenyl)-2-hydroxyacetamide]"
51 to 100 nM,1 to 2 µM,"CNc1ccc(-c2ccc(NC(=O)C(O)c3cc(F)cc(F)c3)cc2C)cn1 (stereo not shown) [Example 172, 2-(3,5-difluorophenyl)-2-hydroxy-N-(3-methyl-4-(6-(methylamino)pyridin-3-yl)phenyl) acetamide]"
101 to 250 nM,4 to 5 µM,"CNc1ncc(-c2ccc(NC(=O)C(O)c3cc(F)cc(F)c3)cc2C)cc1C(=O)NC(C)C (stereo not shown) [Example 174, 5-(4-(2-(3,5-difluorophenyl)-2-hydroxyacetamido)-2-methylphenyl)-N-isopropyl-2-(methylamino) nicotinamide]"
51 to 100 nM,0.501 to 1 µM,"Cc1cc(NC(=O)C(O)c2cc(F)cc(F)c2)ccc1-c1cnc(C)c(C(=O)NC(C)C)c1 (stereo not shown) [Example 176, 5-(4-(2-(3,5-difluorophenyl)-2-hydroxyacetamido)-2-methylphenyl)-N-isopropyl-2-methylnicotinamide]"
26 to 50 nM,0.251 to 0.5 µM,"Cc1cc(NC(=O)C(O)c2cc(F)cc(F)c2)ccc1-c1cnc(C)c(C(=O)NC(C)C)c1 (stereo not shown) [Example 177, 5-(4-(2-(3,5-difluorophenyl)-2-hydroxyacetamido)-2-methylphenyl)-N-isopropyl-2-methylnicotinamide]"
26 to 50 nM,0.101 to 0.25 µM,"Cc1cc(NC(=O)C(O)c2cc(F)cc(F)c2)ccc1-c1cncc(C(=O)NC(C)C)c1 (stereo not shown) [Example 178, 5-(4-(2-(3,5-difluorophenyl)-2-hydroxyacetamido)-2-methylphenyl)-N-isopropylnicotinamide]"
1000 to 2000 nM,> 5 µM,"Cc1ccc(-c2ccc(NC(=O)C(O)c3cc(F)cc(F)c3)cc2C)cn1 (stereo not shown) [Example 180, 2-(3,5-difluorophenyl)-2-hydroxy-N-(3-methyl-4-(6-methylpyridin-3-yl)phenyl)acetamide]"
> 5000 nM,> 5 µM,"Cc1ccc(-c2ccc(NC(=O)C(O)c3cc(F)cc(F)c3)cc2C)cn1 (stereo not shown) [Example 181, 2-(3,5-difluorophenyl)-2-hydroxy-N-(3-methyl-4-(6-methylpyridin-3-yl)phenyl)acetamide]"
251 to 500 nM,0.101 to 0.25 µM,"Cc1cc(NC(=O)C(=O)c2cc(F)cc(F)c2)ccc1-c1cnc(N)c(C(=O)NC(C)C)c1 [Example 184, 2-amino-5-(4-(2-(3,5-difluorophenyl)-2-oxoacetamido)-2-methylphenyl)-N-isopropyl nicotinamide]"
1 to 25 nM,0.251 to 0.5 µM,"Cc1cccc(CC(=O)Nc2ccc(-c3cnc(N)c(C(=O)NC(C)C)c3)c(C)c2)n1 [Example 185, 2-amino-N-isopropyl-5-(2-methyl-4-(2-(6-methylpyridin-2-yl)acetamido)phenyl)nicotinamide]"
51 to 100 nM,0.101 to 0.25 µM,"Cc1cc(NC(=O)Cc2cc(F)cc(F)c2)ccc1-c1cnc(N)c(C(=O)NC(C)C)c1 [Example 186, 2-amino-5-(4-(2-(3,5-difluorophenyl)acetamido)-2-methylphenyl)-N-isopropylnicotinamide]"
101 to 250 nM,0.501 to 1 µM,"Cc1cc(NC(=O)Cc2ccccc2F)ccc1-c1cnc(N)c(C(=O)NC(C)C)c1 [Example 189, 2-amino-5-(4-(2-(2-fluorophenyl)acetamido)-2-methylphenyl)-N-isopropylnicotinamide]"
